Results published in US10668032B2 (SyneuRx International (Taiwan) Corp., priority 2016, dated 2020).

Experiments:
[1] = system: primary cortical neurons; experiment: 3-NP induced toxicity in primary cortical culture (Hoechst staining, MAP-2 immunocytochemistry); type: cell-based, rat; conditions: exposure to 3-NP alone (2.5 mM, 24 h); untreated 0.1
Method: Primary cortical cultures were prepared from embryonic day 18 (E18) fetal Sprague Dawley (SD) rat brains. The cells were maintained in Neurobasal medium supplemented with B27 (GIBCO/Life Technologies of Thermo Fisher Scientific Corporation) at 37° C. for 7 days to allow growth of dendrites before experimentation.
3-NP (Cat. No. 73803, Sigma, St. Louis, Mo., USA) was dissolved in phosphate-buffered saline (PBS) as a stock solution of 1 M and adjusted to pH 7.4 with 10 M sodium hydroxide. The 3-NP stock solution was then dispensed into 1-ml aliquots, protected from light, and stored at −20° C. until use.
Hoechst staining is used to assess the extent of the cell survival. Cells were fixed in 4% paraformaldehyde (PFA) in phosphate-buffered saline (PBS), incubated with the Hoechst 33342 diluted in PBS (1:1000) for 5-15 minutes. The Hoechst staining is used to assess the extent of the cell survival after the exposure to 2.5 mM 3-NP for 24 hours.
Cells were fixed in 4% PFA and washed in PBS, blocked with 2% bovine serum albumin (BSA) and treated by 0.03% Triton X-100 in PBS, before being incubated with mouse monoclonal antibody against microtubule-associated protein-2 (MAP-2) in 1:150 dilution (Cat. No. MAB378, CHEMICON International, Inc., Temecula, Calif., USA). The goat anti-mouse IgG Alexa fluor-conjugated secondary antibodies (Cat No. A11003, Thermo Scientific) in 1:500 dilution were applied to recognize the primary antibodies of the MAP-2. For confocal microscopy, the coverslips were observed under a laser-scanning confocal microscope (Zeiss LSM700; Oberkochen, Germany) equipped with filter sets to detect the corresponding fluorescent signals.
The cells were then exposed to 2.5 mM 3-NP for 24 hours.
Quantitative analysis was also performed to assess the extents of cell death. At least three vision fields were randomly selected and the averaged numbers of dead cells and all nuclei per vision field on each coverslip were calculated.

[2] = system: primary cortical neuronal culture; experiment: Detection of cellular reactive oxygen species (CellROX) after 3-NP in primary cortical culture; type: cell-based, rat; conditions: for ROS production induced by 3-NP: 0.5 mM, incubated 24 hours before 3-NP
Method: Reactive oxygen species (ROS) are detected on primary cortical neuronal culture by CellROX Oxidative Reagents (catalog number 10444, Life Technologies Corp. USA). […] The cells were then exposed to 2.5 mM 3-NP for 24 hours. Subsequently, […] CellROX Reagent was added, and then incubated for […]. CellROX Green Reagent is a DNA dye, and upon oxidation, it binds to DNA; thus, its signal is localized in the nucleus and mitochondria. ROS were quantified by fluorescence intensity. The samples were observed under a laser scanning confocal microscope Zeiss LSM700 (Zeiss, Germany) equipped with filter sets to detect fluorescent signal.

[3] = system: SH-SY5Y cells; experiment: MPTP toxicity in SH-SY5Y cells, MTT assay; type: cell-based, human; conditions: MPTP 750 μM, 24 hrs
Method: SH-SY5Y, the human neuroblastoma cell line, was incubated with MPTP (750 μM) for 24 hrs.

[4] = system: GFAP positive cells in cortical culture; experiment: GFAP immunocytochemistry in cortical culture after Aβ25-35; type: cell-based, rat; conditions: post-treatment 1 mM
Method: Cells were fixed in 4% PFA and washed in PBS, blocked with 2% bovine serum albumin (BSA) and 0.03% Triton X-100 in PBS, and then incubated with mouse monoclonal antibody against microtubule-associated protein-2 (MAP-2) (Cat. No. MAB378, 1:150, CHEMICON International, Inc., Temecula, Calif., USA); rabbit polyclonal antibody against GFAP (Cat. No. Z0334, 1:600, DakoCytomation Denmark A/S, Denmark). The goat anti-mouse IgG Alexa Fluor-conjugated secondary antibodies (1:500; Cat No. A11003, Thermo Scientific); anti-rabbit IgG Alexa Fluor-conjugated secondary antibodies (1:500; Thermo Scientific) were applied respectively to recognize the primary antibodies of the MAP-2 and GFAP.
The coverslips were observed under a digital imaging fluorescence microscope (Olympus BX61; Japan) equipped with filter sets to detect the corresponding fluorescence signals.
Glial fibrillary acidic protein (GFAP) is an intermediate filament protein expressed by cells in the CNS, and is also recognized as an astrocyte maturation marker. Upregulation of GFAP, indicating gliosis, is commonly observed after CNS lesion; therefore, expression of GFAP could be useful to understand the state of neurological diseases.

[5] = system: cortical neurons; experiment: Mitochondrial respiration, XF Cell Mito Stress Test (OCR); type: cell-based, rat; conditions: 3 mM, pre-treatment 24 h
Method: The preparation of primary cortical culture was as described before, but the cells were seeded on XF 96 well cell culture microplates. On the day of assay, culture media were changed to XF Assay medium (Seahorse Biosciences, USA). Prior to assay, plates were transferred into an incubator with CO2 supplementation at 37° C. and kept for 1 hour. The overall OCR was calculated.
The XF Cell Mito Stress Test modulates respiration that target components of the electron transport chain (ETC) in the mitochondria to reveal key parameters of metabolic function. The modulators (oligomycin, FCCP, and a mix of rotenone and antimycin A) are serially injected to measure ATP production, maximal respiration, and non-mitochondrial respiration. Proton leak and spare respiratory capacity are then calculated using these parameters.

[6] = system: cortical cells with Aβ25-35 exposure; experiment: Aβ25-35 cytotoxicity with or without NMDA receptor antagonist MK801, cell survival
Method: Aβ25-35 (Cat. No. A4559, Sigma) was dissolved in autoclaved ddH2O to make a stock solution of 2 mM, dispensed into aliquots, and immediately stored at −80° C. until use.
In this study, the application of MK801 could reveal whether the neuroprotective effects of drugs were mediated by NMDA receptor.

[7] = system: primary cortical neurons; experiment: Aβ25-35 cytotoxicity in primary cortical culture, cell survival (MTT); conditions: 10 μM Aβ 25-35 for 2 days, then drug 1 mM for 4 days; vs no drug treatment
Method: MTT assay was used to assess the extents of cell survival. MTT (3-(4,5-dimethylthiazol-2-yl)-2,5-diphenyltetrazolium bromide) was added to the culture, incubated at 37° C. for 4 hours. Insoluble purple formazan products were yield by living cells. The colorimetric method was used to quantify the surviving cells, and “cell survival (%)” was defined as the mean numbers of surviving cells.
Primary cortical cultures were prepared as previous described. Aβ25-35 (Cat. No. A4559, Sigma) was dissolved in autoclaved ddH2O to make a stock solution of 2 mM, dispensed into aliquots, and immediately stored at −80° C. until use.

SMILES | number of GFAP positive cells after Aβ25-35 exposure [4] | ROS production induced by 3-NP [2] | spare respiratory capacity [5] | further results
O=C(O)CC[N+](=O)[O-] [3-NP, 3-Nitropropionic acid, reference compound] |  |  |  | death index (ratio of dead cells to survived cells) [1]: 0.4; increase of ROS production ([2]; 3-NP alone): more than 50%
CN1CC=C(c2ccccc2)CC1 [MPTP, 1-methyl-4-phenyl-1,2,3,6-tetrahydropyridine, reference compound] |  |  |  | cell number reduction [3]: about 50%
O=C([O-])c1ccccc1.[Na+] [sodium benzoate, reference compound] | did not influence | reduce the amount of cellular ROS | less effective than LiBen | protective effect in the presence of MK801 ([6]; 1 mM, MK801 10 μM): blocked; cell survival with Aβ25-35 exposure ([6]; post-treatment 1 mM, MK801 0 μM): elevate the cell survival
[Cl-].[Li+] [lithium chloride, reference compound] | significantly reduced | reduce the amount of cellular ROS | less effective than LiBen | cortical cell survival after Aβ25-35 [7]: statistical improvement
